The record followed here is patent US6355674B1, “Aminotetralins as 5-HT1D α Agonists” (Eli Lilly and Company, priority 1997, dated 2002).

Counter-ions that a name gives are not always drawn.

The melting point is the temperature of the solid-liquid transition.

In turn, `CN(C)C1CCc2cccc(C3(O)CCCCC3)c2C1` (stereo not drawn) (as salt: hydrobromid) (hydrate or solvate) yielded a melting point of 210 to 211 °C.

`CN(C)C1CCc2cccc(C3(O)CCCCCC3)c2C1` (stereo not drawn) (as salt: hydrobromid) (hydrate or solvate) gave a melting point of 186 to 187 °C.

Turning to `Cc1cccc2c1C[C@H](N(C)C)CC2` (as salt: hydrochloride), the melting point was 180 to 181 °C (dec.).

`COCCOCc1cccc2c1CC(N(C)C)CC2` (stereo not drawn) (as salt: hydrochloride) had a melting point of 147 to 148 °C.

In the case of `CN(C)C1CCc2cccc(C3CCCC3)c2C1` (stereo not drawn) (as salt: hydrochloride), the melting point is 158 to 159 °C.

Consider `C/C=C(\CC)c1cccc2c1C[C@H](N(C)C)CC2` (as salt: hydrochloride), for which the melting point lay within 158 to 160 °C.
